Key:
ERCC6, γ-H2AX = experiment: Western blots of DNA damage/repair proteins in PANC1; assay type: cell-based, human
Protocol: Western blotting/Immunoblotting. […] Fifty μg total protein from each sample were heated at 95° C. for 5 minutes after mixing with equal volume of 2×SDS loading buffer. Samples were separated on 12-15% SDS-polyacrylamide gel electrophoresis (SDS-PAGE) gels and electrotransferred to Pure Nitrocellulose Membranes (Bio-Rad, Hercules, CA). The membrane was then blocked in 5% skim milk in TBS-T buffer (20 mM Tris/HCl pH 7.5, 0.137 M NaCl, and 0.1% Tween 20) at room temperature for 2-3 hours. Next, the membrane was incubated with different primary antibodies in TBS-T containing 5% BSA overnight at 4° C. in the range of dilutions from 1:500 to 1:2000. After washing with TBS-T, the membrane was incubated in TBS-T buffer containing 5% skim milk and corresponding secondary antibody (1:5000) for 45-60 minutes at room temperature with shaking. Protein of interest was detected using Western Lightning Plus—ECL (Perkin Elmer, Waltham, MA) and visualized by various times (3-120 seconds) of exposure. Actin was detected as the internal control to normalize total protein loading for each sample.

[1] = system: CD44 stem cell marker-positive PANC1 cells; experiment: CD44-positive PANC1 colony formation; assay type: cell-based, human
Protocol: CD44 positive cell sorting and CD44-positive cell colony formation. CD44 positive (CD44+) cells were purified (sorted out) using fluorescence activated cell sorting (FACS). FITC-conjugated mouse anti-human CD44 was used in FACS purification of CD44+ PANC1 cells. Briefly, PANC1 cells were harvested by using 0.25% trypsin/0.02% EDTA. After re-suspension of the cells in cell-culture media, the cells were counted and washed in PBS with 2% FBS and collected by centrifugation. Add 10 μL FITC-CD44 antibody to 1 ml PBS containing 1 million cells and 2% of FBS for 30 minutes on ice. Following the antibody labeling, PANC1 cells were washed in PBS with 2% BSA before flow cytometric analysis was carried out on a BD FACSAria™ III cell sorter (BD Science, USA). […] Colonies were fixed, stained with crystal violet solution and images were taken before counting colonies on day 12. The experimental results were expressed as the mean±SD. The statistical significance of differences was determined by Student's t-test between two groups.
To further confirm these findings, we alternatively used the typical matrigel-based CSC sphere formation assay which is know to more closely mimic in vivo situations. In this assay only drug resistant stem-like cancer cells are able to form spheres. […] We performed colony formation of CD44 stem cell marker-positive cells using the stem-cell culture condition. […]

With `CC[C@@]1(O)C(=O)OCc2c1cc1n(c2=O)Cc2cc3cc4c(cc3nc2-1)OCO4` [FL118, 10,11-methylenedioxy-camptothecin] the “expression of ERCC6 and γ-H2AX” value (ERCC6, γ-H2AX) was “strongly decreased the expression of ERCC6 and induced γ-H2AX”, the colony formation ([1]; 1 nM) was “significantly inhibited colony formation” and the colony formation ([1]; 10 and 100 nM) was “completely eliminate colony formation”.

— US20250092058A1 (priority 2018, published 2025)
